Source: patent US8710032B2, “Inhibitors of the mevalonate pathway of Streptococcus pneumoniae” (Northwestern University, priority 2006, dated 2014)
“Also recorded” adds a separate entry of the source. Where two headings read alike, the source gives them in different places.

Key:
human mevalonate kinase [1] = molecular target: T1, human mevalonate kinase (Homo sapiens, UniProt Q03426); assay: DPM inhibition of human mevalonate kinase (initial rate); format: biochemical; settings: at DPM concentrations that essentially completely inhibit the streptococcal system; [substrates]~Km
T1 construct: made in house
Experimental: (§1) The findings that mevalonate-pathway S. pneumoniae mutants cannot survive in mouse lung or serum validated this pathway as an antibiotic target in animal models. Acting on the hypothesis that the primary sequence differences of the mammalian and streptococcal MKs might produce different DPM-inhibition characteristics, the human enzyme was cloned, expressed, purified and tested for DPM inhibition. The effect of DPM on the initial rate of the human and streptococcal enzymes was assessed using samples with matched catalytic poise ([substrates]˜Km, equivalent Vm).

human mevalonate kinase [2] = molecular target: T1, human mevalonate kinase; settings: background; cited from earlier work
[3] = molecular target: T2, mammalian DPM decarboxylase (Homo sapiens, UniProt P53602); settings: cited from earlier work; for Km: substrate of mammalian DPM decarboxylase
T2 sequence (P53602 1-400): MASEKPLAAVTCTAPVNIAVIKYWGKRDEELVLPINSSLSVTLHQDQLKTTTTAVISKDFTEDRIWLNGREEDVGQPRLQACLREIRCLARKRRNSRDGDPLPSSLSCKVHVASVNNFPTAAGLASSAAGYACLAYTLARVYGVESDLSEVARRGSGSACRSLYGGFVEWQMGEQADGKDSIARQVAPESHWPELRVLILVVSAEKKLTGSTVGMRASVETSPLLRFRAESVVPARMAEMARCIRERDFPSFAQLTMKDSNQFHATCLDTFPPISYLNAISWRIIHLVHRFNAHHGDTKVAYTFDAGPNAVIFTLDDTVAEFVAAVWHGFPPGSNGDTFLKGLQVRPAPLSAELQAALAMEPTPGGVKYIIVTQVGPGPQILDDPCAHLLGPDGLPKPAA

mevalonate kinase (MK) [4] = molecular target: T3, mevalonate kinase (MK) (Streptococcus pneumoniae, UniProt A0A0H2UNK6); settings: read-out: Ki (binding to the allosteric site of mevalonate kinase); S. pneumoniae MK; background, Andreassi et al. 2004; cited from earlier work
mevalonate kinase (MK) [5] = molecular target: T3, mevalonate kinase (MK); assay: Equilibrium binding of DPM to MK
mevalonate kinase (MK) [6] = molecular target: T3, mevalonate kinase (MK); assay: Initial-rate inhibition of S. pneumoniae mevalonate kinase; format: biochemical
Experimental: Regulation of the isoprenoid biosynthetic pathway in S. pneumoniae was discovered during an attempt to enzymatically synthesize DPM from ATP and mevalonate using MK and PMK. Individually, either enzyme is capable of quantitative conversion of substrate to product. However, when the enzymes are added simultaneously, the forward reaction decelerates rapidly and little product is formed. […] Thus, this nearly pure noncompetitive inhibitor binds at a site that is physically distinct from the substrate binding sites—an allosteric site. […] The stoichiometry was confirmed by NMR titration. […] Down-regulation of this pathway is quite specific for DPM.
as §1
(§2) Several compounds were designed to inhibit DPM-DC and control cholesterol biosynthesis. In one such compound, each of the C6-methyl protons of mevalonate are replaced with fluorine (6,6,6-trifluoromevalonate, F3-mev). Given DPM inhibition of MK, and excellent inhibition of rat liver DPM-DC by F3-DPM (Ki=0.5 μM) it was hoped that F3-DPM might inhibit both MK and DPM-DC from S. pneumoniae, and, if so, be used as a bacteriostatic or bacteriocidal agent. […] Encouraged, F3-DPM was tested as an antibiotic against S. pneumoniae. To avoid the possible obstacles of phosphatase degradation of DPM and transporting a highly charged anion across the cell wall, a prodrug strategy that relies on conversion of F3-mev to F3-DPM in the cytosol was used. F3-mev conversion to F3-DPM and consequent inhibition of DPM-DC occurs in rat liver extracts. The linear and lactone forms of statins, which target an early step in the isoprenoid pathway, show widely different potencies; consequently, both forms of F3-mev were tested as inhibitors. Serial dilutions of F3-mev were added to Meuller-Hinton Broth, a horse-blood based medium, containing ˜7.5×10^7 cells of either an infectious (ATCC 49619) or non-infectious (R6) strain of S. pneumoniae. The cultures containing F3-mev were incubated for 24 hours at 35° C. and plated to assess viability. The linear form of F3-mev had little effect; confluent growth was observed on all plates; in contrast, the lactone is clearly a bacteriocide—less than 0.0001% of either strain survived at 100-200 μg/ml of the lactone. […]

DPM-DC [7] = molecular target: T4, DPM-DC (Streptococcus pneumoniae, UniProt A0A0H2UNP0); assay: DPM binding to DPM-DC by intrinsic fluorescence
T4 sequence (A0A0H2UNP0 1-317): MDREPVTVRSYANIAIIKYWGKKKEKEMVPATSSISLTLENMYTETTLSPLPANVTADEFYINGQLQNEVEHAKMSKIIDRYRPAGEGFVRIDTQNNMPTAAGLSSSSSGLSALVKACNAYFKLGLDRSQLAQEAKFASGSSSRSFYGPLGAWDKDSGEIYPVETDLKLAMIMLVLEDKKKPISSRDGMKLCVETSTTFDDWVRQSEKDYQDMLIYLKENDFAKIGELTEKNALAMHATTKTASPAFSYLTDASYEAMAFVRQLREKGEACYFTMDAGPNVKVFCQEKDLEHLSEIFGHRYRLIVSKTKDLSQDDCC
Experimental: FIG. 5. DPM Binding to DPM-DC. Conditions: DPM-DC (0.10 μM); MgCl2 (1.0 mM); β-Me (2.0 mM); KCl (50 mM); Glycerol (0.5% v/v); Hepes (50 mM, pH 8.0); T=25 (±2)° C.
This spectroscopic handle can be used to determine the affinities of the inhibitors described in this proposal and to explore the mechanism of DPM-DC. […] As a tool to study mechanism, the DPM-induced fluorescence changes can monitor, by stopped-flow, the progress of the binding reactions. The concentration dependencies of such measurements yield microscopic rate constants, which, in turn, provide ground and transition-state energetics for a particular step in the reaction coordinate. In favorable cases, fluorescence changes occur subsequent to binding as consequence of other structural changes that occur during the catalytic cycle—such is the case with DPM-DC. These changes can be assigned to bond-cleavage steps using by monitoring chemistry in the presteady-state by quenched-flow.

DPM-DC [8] = molecular target: DPM-DC (Streptococcus pneumoniae, UniProt Q9FD53); assay: Inhibition of S. pneumoniae DPM-DC; format: biochemical; settings: DPM-DC from S. pneumoniae
rat liver DPM-DC = molecular target: T5, rat liver DPM-DC (Rattus norvegicus, UniProt Q62967); settings: cited from earlier work
T5 construct: host or cells: rat liver
T5 sequence (Q62967 1-401): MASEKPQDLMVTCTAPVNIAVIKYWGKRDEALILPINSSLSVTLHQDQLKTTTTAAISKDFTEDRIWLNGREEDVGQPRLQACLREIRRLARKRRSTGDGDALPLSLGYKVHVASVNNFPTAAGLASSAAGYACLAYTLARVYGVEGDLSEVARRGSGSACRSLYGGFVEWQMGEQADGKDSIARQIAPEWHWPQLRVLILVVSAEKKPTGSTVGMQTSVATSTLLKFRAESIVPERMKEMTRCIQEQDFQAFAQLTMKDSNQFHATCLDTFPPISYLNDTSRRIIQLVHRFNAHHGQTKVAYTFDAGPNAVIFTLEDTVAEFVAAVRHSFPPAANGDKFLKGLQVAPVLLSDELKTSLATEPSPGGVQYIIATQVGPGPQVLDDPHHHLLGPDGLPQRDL

[9] = test system: S. pneumoniae (ATCC 49619, R6); assay: Antibiotic test: broth culture, plated to assess viability; format: cell-based, Streptococcus pneumoniae; settings: serial dilutions; 24 hours at 35° C.; ATCC 49619 or R6
Experimental: as §2, with “viability.” for “viability. The linear form of F3-mev had little effect; confluent growth was observed on all plates; in contrast, the lactone is clearly a bacteriocide—less than 0.0001% of either strain survived at 100-200 μg/ml of the lactone.”

mevalonate kinase = molecular target: T6, mevalonate kinase (Streptococcus pneumoniae, UniProt A0A0H2UNK6); assay: Initial substrate results of analogues with mevalonate kinase (FIG. 8); format: biochemical; settings: [ATP]=0.85 mM
T6 sequence (A0A0H2UNK6 1-292): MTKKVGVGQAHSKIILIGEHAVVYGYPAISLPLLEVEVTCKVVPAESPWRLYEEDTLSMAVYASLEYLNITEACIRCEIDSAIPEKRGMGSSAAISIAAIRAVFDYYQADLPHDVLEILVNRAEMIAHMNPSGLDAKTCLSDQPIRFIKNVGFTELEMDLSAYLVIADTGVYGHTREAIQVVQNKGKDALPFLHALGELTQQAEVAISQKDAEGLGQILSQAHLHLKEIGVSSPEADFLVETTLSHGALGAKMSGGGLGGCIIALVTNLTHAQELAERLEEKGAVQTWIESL
Experimental: FIG. 8. Initial substrate results [analogue] ranged from 2.0-2.5 mM, except #6 (4.2 mM) and #8 (6.2 mM).
A series of compounds related to compounds 4, 5, 23, and 25 can be synthesized as potential competitive or noncompetitive reversible inhibitors of MK and DPM-DC (See, e.g., FIGS. 6-7). The representative synthesis shown (Scheme 4a) is a modification of that shown in Scheme 4, and R is limited only by availability of the corresponding reagent and synthetic technique, as would be understood by those skilled in the art made aware of this invention (e.g., alkyl, vinyl, acetylenyl, aryl, heteroaryl, etc., via Grignard reaction with the corresponding magnesium bromide or chloride).

MK = settings: producing 6-fluoroDPM; cited from earlier work
[10] = test system: incorporation of mevalonate into nonsaponifiable lipids; settings: rat liver extracts; relative to F3-mev; cited from earlier work
DPM-DC [11] = molecular target: T4, DPM-DC; settings: cited from earlier work
PMK = settings: producing 6-fluoroDPM; cited from earlier work

T1 sequence (Q03426 whole entry): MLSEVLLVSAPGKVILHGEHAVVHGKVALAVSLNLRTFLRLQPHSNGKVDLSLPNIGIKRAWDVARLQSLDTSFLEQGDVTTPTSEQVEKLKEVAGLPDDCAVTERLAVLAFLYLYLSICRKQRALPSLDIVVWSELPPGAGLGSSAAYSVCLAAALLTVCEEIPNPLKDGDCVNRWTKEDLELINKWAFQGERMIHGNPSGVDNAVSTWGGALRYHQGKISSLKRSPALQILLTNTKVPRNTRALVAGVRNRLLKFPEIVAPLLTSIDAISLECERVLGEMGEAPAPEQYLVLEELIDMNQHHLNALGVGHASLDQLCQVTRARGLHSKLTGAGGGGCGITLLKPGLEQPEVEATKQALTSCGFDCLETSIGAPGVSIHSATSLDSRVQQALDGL
DPM-DC (Streptococcus pneumoniae, UniProt Q9FD53), sequence (Q9FD53 entry or part of it): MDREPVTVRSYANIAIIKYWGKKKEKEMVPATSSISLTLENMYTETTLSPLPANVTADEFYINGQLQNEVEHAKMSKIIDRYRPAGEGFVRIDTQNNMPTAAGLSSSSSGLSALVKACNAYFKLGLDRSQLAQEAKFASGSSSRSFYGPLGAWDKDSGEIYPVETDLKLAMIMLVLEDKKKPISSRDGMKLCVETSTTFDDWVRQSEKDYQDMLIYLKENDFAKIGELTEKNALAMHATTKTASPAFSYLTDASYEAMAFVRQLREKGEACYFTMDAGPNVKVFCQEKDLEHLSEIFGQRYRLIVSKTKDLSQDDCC

In the case of C[C@@](O)(CCOP(=O)(O)OP(=O)(O)O)CC(=O)O [DPM, Diphosphomevalonate], the “effect of DPM on human MK” value (human mevalonate kinase [1]) is given as “virtually unaffected; also recorded: insensitive”, the “effect of DPM on human mevalonate kinase isozyme” value (human mevalonate kinase [2]) is given as “not affected” and the Km [3] is given as 15 µM. The Ki (mevalonate kinase (MK) [4]) was 400 nM, the Kd (mevalonate kinase (MK) [5]; Kd DPM, quoted for the NMR titration of MK) was 500 nM and the Kd (mevalonate kinase (MK) [5]; affinity of DPM for apo (E) form of the enzyme, apo (E)) was 630 nM. The Kd (mevalonate kinase (MK) [5]; affinity of DPM for ternary (E.AMPPNP.mev) form of the enzyme, ternary (E.AMPPNP.mev)) was 530 nM, the binding stoichiometry (mevalonate kinase (MK) [5]; enzyme is a dimer) was 0.5 DPM/active site and the Ki (mevalonate kinase (MK) [6]) was 500 nM. For the same molecule, the “turnover reduced to” value (mevalonate kinase (MK) [6]; DPM bound to MK) was “less than 0.5%”, the “inhibition mechanism (initial-rate study)” value (mevalonate kinase (MK) [6]; vs substrates) was “noncompetitively” and the Kd (DPM-DC [7]) was 540 nM. For the same molecule, the “change in the intrinsic fluorescence of DPM-DC” value (DPM-DC [7]; on binding of DPM) was 1.5 fold.

For O=C(O)CC(O)(CCOP(=O)(O)OP(=O)(O)O)C(F)(F)F (stereo not drawn) [F3-DPM], the Ki (DPM-DC [8]) is listed as 50 nM, the Ki (mevalonate kinase (MK) [6]; MK from S. pneumoniae, read-out: Ki (MK)) is listed as 570 nM and the Ki (rat liver DPM-DC; rat liver) is listed as 500 nM.

For CCC(O)(CCOP(=O)(O)OP(=O)(O)O)CC(=O)O (stereo not drawn) [compound 14], the Km ([3]; read-out: Km) is listed as 33 µM and the “kcat relative to DPM” value ([3]; that of DPM) is listed as 32%.

For O=C(O)CC(O)(CCO)C(F)(F)F (stereo not drawn) [linear form of F3-mev, 6,6,6-trifluoromevalonate], the “effect on viability (growth on plates)” value [9] was “little effect”.

CC(O)(CCO)CC(=O)O (stereo not drawn) [mevalonate] showed a kcat (mevalonate kinase) of 227 s^1.

For O=C(O)CC(O)(CF)CCO (stereo not drawn) [mono-fluoro derivative, 6-Fluoromevalonic acid], the “substrate for MK (in words)” value (MK) is given as “substrate”, the “more effective than F3-mev in inhibiting incorporation of mevalonate into nonsaponifiable lipids” value [10] is given as 50 times and the decrease in turnover (DPM-DC [11]; mono-fluoro substitution at C6) is given as 2500 fold. The turnover (DPM-DC [11]; substrate of DPM-DC) was 0.19 min⁻¹, the “turnover relative to the native compound” value (DPM-DC [11]; vs DPM) was 0.04% and the “substrate for PMK (in words)” value (PMK) was “substrate”. For the same molecule, the “better inhibitor of DPM-DC (relative to F3 analogue)” value (rat liver DPM-DC; rat liver extracts) was 50 fold.
